Laboratory results: article PMC4812144, “Flavonolignans As a Novel Class of Sodium Pump Inhibitors” (Frontiers in Physiology, 2016)

Columns and labels:
Na+/K+-ATPase (NKA) [1] = biological target: T1, Na+/K+-ATPase (NKA) (Sus scrofa, UniProt P05024); test: Ouabain-sensitive ATPase activity of NKA (Baginsky assay); assay type: biochemical, porcine; conditions: for IC50: ouabain-sensitive ATPase activity, NKA from porcine kidney, 3 mM ATP, read-out: IC50 for inhibition of the NKA activity; for n, Hill coefficient: fit of NKA inhibition curve to logistic function
T1 construct: The NKA was prepared from porcine kidney outer medulla; from tissue; host or cells: porcine kidney outer medulla
Description: The NKA was prepared from porcine kidney outer medulla using the method of Jorgensen and Klodos with some modifications (Jørgensen, [1988]; Klodos et al., [2002]; Kubala et al., [2014]). An isolated enzyme was pipetted into small aliquots and stored at −20°C in ISE buffer (25 mM imidazole, 250 mM sucrose, 1 mM EDTA, pH 7.4) containing SDS detergent. The molar concentration of isolated NKA was estimated using the Bradford method with consideration of MW(α + β) = 165,000 Da. The protein purity >90% was estimated from SDS-PAGE (Figure 2).
The measurements of NKA activity were performed using the Baginsky assay (Kubala et al., [2014]). The assay was performed in microwell plates in 4 replicates for each point and automated in the pipetting station Freedom EVO (Tecan, Switzerland).
(§1) The reaction buffer was composed of 325 mM NaCl, 50 mM KCl, 7.5 mM MgCl2, and 75 mM imidazole, pH 7.2. In the experiments where the K^+-dependence was estimated, the KCl concentration is ranging from 0 to 100 mM. The NKA (0.1 mg/mL) isolated from porcine kidney was mixed with reaction buffer without ATP. All inhibitors were solubilized in methanol immediately before the measurement and then premixed with the reaction buffer to the required concentration. Subsequently, 10 μL of inhibitor solution was added into 20 μL of enzyme solution and incubated for 2 min. In the control sample, only 10 μL of reaction buffer without inhibitor was added including corresponding amount of methanol. The reaction was started by the addition of ATP solution (20 μL, 7.5 mM in the stock, the final concentration in the reaction was 3 mM). The reaction proceeded for 6 min at room temperature and then was stopped by addition of 75 μL of staining solution, which was composed of 160 mM ascorbic acid, 3.7% (v/v) acetic acid, 3% (w/v) SDS, and 0.5% ammonium molybdate. The staining reaction was stopped after another 8 min by adding 125 μL of solution composed of 0.9% (w/v) bismuth citrate, 0.9% (w/v) sodium citrate and 3.7% HCl.
The Baginsky method detects a product of ATP hydrolysis, inorganic phosphate, which interacts with ammonium molybdate. The reaction results in a color change, which can be monitored as a change of absorbance at 710 nm, and was measured using microplate reader Synergy Mx (BioTek, USA). The calibration line was determined using KH2PO4 solutions, in […] concentration range.
(§2) The specific NKA activity is standardly estimated using the treatment by ouabain, which serves as a specific inhibitor of NKA. The ATPase activity decreases to less than 10% in the presence of 10 mM ouabain. This residual activity in the presence of ouabain was subtracted from the total estimated ATPase activity in ouabain-untreated samples, and all data are presented as the ouabain-sensitive ATPase activity. The IC50 values were obtained from fitting the data to the logistic function.

[2] = Solubility (qualitative remarks); assay type: physicochemical; conditions: NKA activity assay
Na+/K+-ATPase (NKA) [3] = biological target: T1, Na+/K+-ATPase (NKA); test: K+/ouabain antagonism: ouabain inhibition of NKA activity with or without flavonolignan; assay type: biochemical, porcine; conditions: for K0.5(ouabain): in the presence of 40 μM flavonolignan; for IC50: K0.5(ouabain), no flavonolignan (row None)
Description: as §1, §2
(§3) We have tested influence of these three species on the ouabain inhibition and K^+-dependence of NKA activation. None of the species substantially influenced the IC50 for ouabain or the K^+/ouabain antagonism (Figure 5). The NKA activity is K^+-dependent and it increased with increasing concentration of potassium with K0.5(K^+) = 4.2 ± 0.6 mM.

Na+/K+-ATPase (NKA) [4] = biological target: T1, Na+/K+-ATPase (NKA); test: K+-dependence of NKA activity (K+-dependent activation); assay type: biochemical, porcine
Description: as §1, §3

[5] = biological target: T2, large cytoplasmic segment C45 of NKA (C45 loop, residues L354-I777) (Mus musculus, UniProt Q8VDN2); test: Fluorescence spectroscopy of interaction with isolated large cytoplasmic segment C45; assay type: binding; conditions: 5 μM species; for Fluorescence intensity increase in the presence of C45: 5 μM C45, pH 7.4, excitation 380 nm
T2 construct: (His)6-tag (N); made in house; host or cells: E. coli BL21
Description: The large cytoplasmic segment connecting the transmembrane helices 4 and 5 (C45 loop, residues L354-I777 of the mouse brain sequence) with a (His)6-tag at the N-terminus was expressed in E. coli BL21 (Promega, USA) and purified using a Co^2+-based affinity resin (Clontech, USA) as described previously (Grycova et al., [2009]). Immediately after elution, the protein was dialyzed into 20 mM Tris, 140 mM NaCl, pH 7.4 buffer and stored at −20°C.
Spectroscopic experiments were performed in 20 mM Tris, 140 mM NaCl, pH 7.4 buffer. SCH, DHSCH and DHSD as well as protein C45 were diluted to 5 μM concentration.
Fluorescence emission spectra were measured using Fluorolog-3 (Horiba Scientific, USA). The spectra were scanned with a step of 1 nm, both excitation- and emission bandpass 5 nm and integration time 1 s. For SCH, the excitation was 325 nm and emission was recorded in the 340–600 nm interval, for DHSCH and DHSD, the excitation wavelength was 380 nm and spectra were scanned in the 400–600 nm interval. Signal from pure buffer was subtracted as a background.

[6] = 40 mM KCl (value in parentheses)
[7] = in the presence of 40 μM flavonolignan

SMILES: COc1cc(C2Oc3cc([C@H]4Oc5cc(O)cc(O)c5C(=O)[C@@H]4O)ccc3OC2CO)ccc1O (some centres unmarked) [SB, silybin]
- IC50 (Na+/K+-ATPase (NKA) [1]): > 1000 µM
- Solubility limiting the examined concentration range [2]: lower solubility

SMILES: COc1cc(C2Oc3c(O)cc(-c4oc5cc(O)cc(O)c5c(=O)c4O)cc3C2CO)ccc1O (centres unmarked) [DHSCH, dehydrosilychristin]
- n, Hill coefficient (Na+/K+-ATPase (NKA) [1]): 0.8 ± 0.1
- IC50 (Na+/K+-ATPase (NKA) [1]): 38 ± 8 µM
- K0.5(ouabain) (Na+/K+-ATPase (NKA) [3]; 5 mM KCl): 1.5 ± 0.5 µM
- K0.5(ouabain) (Na+/K+-ATPase (NKA) [3]; [6]): 24 ± 6 µM
- K0.5(K+) for K+-dependent activation of NKA (Na+/K+-ATPase (NKA) [4]; [7]): 4 ± 1 mM
- Fluorescence intensity increase in the presence of C45 [5]: ca. 3 times

SMILES: COc1cc(C2Oc3c(O)cc([C@H]4Oc5cc(O)cc(O)c5C(=O)[C@@H]4O)cc3C2CO)ccc1O (some centres unmarked) [SCH, silychristin]
- n, Hill coefficient (Na+/K+-ATPase (NKA) [1]): 0.6 ± 0.1
- IC50 (Na+/K+-ATPase (NKA) [1]): 110 ± 40 µM
- K0.5(ouabain) (Na+/K+-ATPase (NKA) [3]; 5 mM KCl): 4.0 ± 1.7 µM
- K0.5(ouabain) (Na+/K+-ATPase (NKA) [3]; [6]): 18 ± 2 µM
- K0.5(K+) for K+-dependent activation of NKA (Na+/K+-ATPase (NKA) [4]; [7]): 8 ± 5 mM
- Fluorescence quantum yield increase in the presence of C45 compared to the free species ([5]; 5 μM C45, pH 7.4): more than 1000 times

SMILES: COc1cc([C@@H]2[C@H]3CO[C@@]4(O)C(=O)[C@@H]2C=C([C@H]2Oc5cc(O)cc(O)c5C(=O)[C@@H]2O)[C@@H]34)ccc1O [SD, silydianin]
- IC50 (Na+/K+-ATPase (NKA) [1]): > 1000 µM
- Solubility limiting the examined concentration range [2]: lower solubility

SMILES: O=c1c(O)c(-c2ccc(O)c(O)c2)oc2cc(O)cc(O)c12 [QUE, quercetin]
- IC50 (Na+/K+-ATPase (NKA) [1]): > 1000 µM

SMILES: C[C@@H]1O[C@@H](O[C@H]2C[C@@H](O)[C@]3(CO)[C@H]4[C@H](O)C[C@]5(C)[C@@H](C6=CC(=O)OC6)CC[C@]5(O)[C@@H]4CC[C@]3(O)C2)[C@H](O)[C@H](O)[C@H]1O [ouabain, reference compound]
- remaining activity at 10000 µM (Na+/K+-ATPase (NKA) [1]; read-out: ATPase activity remaining in the presence of ouabain): < 10%
- IC50 (Na+/K+-ATPase (NKA) [3]; 5 mM KCl): 2.6 ± 1.3 µM
- IC50 (Na+/K+-ATPase (NKA) [3]; [6]): 23 µM
- K0.5(K+) for K+-dependent activation of NKA (Na+/K+-ATPase (NKA) [4]; in the presence of ouabain): 14.8 ± 0.1 mM

SMILES: COc1cc(C2Oc3cc(-c4oc5cc(O)cc(O)c5c(=O)c4O)ccc3OC2CO)ccc1O (centres unmarked) [DHSB]
- n, Hill coefficient (Na+/K+-ATPase (NKA) [1]): 0.5 ± 0.1
- IC50 (Na+/K+-ATPase (NKA) [1]): 900 ± 800 µM
- Solubility limiting the examined concentration range [2]: lower solubility

SMILES: COc1cc(C2C3C=C(c4oc5cc(O)cc(O)c5c(=O)c4O)C4C2COC4(O)C3=O)ccc1O (centres unmarked) [DHSD, dehydrosilydianin]
- n, Hill coefficient (Na+/K+-ATPase (NKA) [1]): 0.6 ± 0.1
- IC50 (Na+/K+-ATPase (NKA) [1]): 36 ± 14 µM
- K0.5(ouabain) (Na+/K+-ATPase (NKA) [3]; 5 mM KCl): 3.3 ± 1.4 µM
- K0.5(ouabain) (Na+/K+-ATPase (NKA) [3]; [6]): 19 ± 7 µM
- K0.5(K+) for K+-dependent activation of NKA (Na+/K+-ATPase (NKA) [4]; [7]): 3 ± 2 mM
- Fluorescence intensity increase in the presence of C45 [5]: three-fold
- Solubility limiting the examined concentration range [2]: lower solubility

SMILES: O=C1c2c(O)cc(O)cc2OC(c2ccc(O)c(O)c2)C1O (centres unmarked) [TAX, taxifolin]
- IC50 (Na+/K+-ATPase (NKA) [1]): > 1000 µM
